{"source": "patent US20080227728A1", "about": "“Therapeutic Agent for the Treatment of a Condition Associated with Peripheral Vascular Disease” (LABORATORIOS BELMAC, S.A., priority 2005, published 2008)", "test_system": "individuals showing problems related to venous insufficiency", "test": "Administration of oleuropein to patients suffering from venous insufficiency (general statements)", "settings": "compared with other drugs known for peripheral vascular disease symptoms", "data": [{"smiles": "C/C=C1/[C@H](O[C@@H]2O[C@H](CO)[C@@H](O)[C@H](O)[C@H]2O)OC=C(C(=O)OC)[C@H]1CC(=O)OCCc1ccc(O)c(O)c1", "note": "[oleuropein]", "values": [{"measurement": "side effects", "value": "do not show significant side effects"}]}]}
